System: BHK-21 cells
Type: cell-based, Syrian hamster
Details: BHK-21, 24 h after staining
Protocol: SP compound 6e was selected for fluorescent cell imaging analysis. First, the compound was used to label the BHK-21 cells that are widely used in molecular biology studies. Commercially available CellTracker™ Deep Red dye (Invitrogen) was used as a control because it has a similar emission range (ex/em: 630/660). The BHK-21 cells were incubated with fluorescent dyes to stain the cells, then seeded on a 24-well plate and cultured for 24 h. SP compound 6e was used at 25 μM concentration, providing a non-toxic effect on BHK-21 cells (Table S2, entry 5, Supplementary Materials). The Deep Red dye was used according to the manufacturer’s instructions.
The day after staining, the cells were collected and washed several times with PBS buffer in order to evaluate the stability of the staining. The fluorescent signal was analysed by flow cytometry (Figure 3). […] However, only (61 ± 3)% of Deep Red stained cells were positive, whereas SP compound 6e ensured 99.9% positive cells. Moreover, the signal intensity (fluorescence shift from unstained cells) of cells stained with compound 6e was remarkably higher than for the Deep Red dye. The calculated stain index for SP compound 6e was (92 ± 19) before cell washing and (77 ± 15) after cell washing. However, in the case of Deep Red, the calculated stain index was (2.27 ± 0.07) before cell washing and (2.21 ± 0.07) after cell washing. High intensity usually facilitates flow cytometry data acquisition by enhancing the signal-to-background ratio and enabling optimal compensation in complex multicolour fluorescence analysis. […]
When cells reached 90% confluency, they were stained with 25 μM compound 6e or 1 μM CellTracker™ Deep Red dye (Cat. No. C34565; Invitrogen) according to the manufacturer’s instructions. […] Stained cells were kept at 4 °C and analysed using a FACSAria BD Hardware flow cytometer with FACSDiva 6.1.3 software (BD Biosciences, San Jose, CA, USA). […] The data were analysed using FlowJo 10.3 software (FlowJo LLC, Ashland, OR, USA) and presented as the mean of three independent experiments. […]

Q: For CCCCCCCCCCCCCCCC[n+]1ccc(C=CC=Cc2cc3c4c(c2)CCCN4CCC3)cc1.[Br-] [Compound 6e, 1-hexadecyl-4-(4-(2,3,6,7-tetrahydro-1H,5H-pyrido[3,2,1-ij]quinolin-9-yl)buta-1,3-dien-1-yl)pyridin-1-ium bromide], which “stain index after cell washing” value (washed 3 times with PBS) is on record?
A: The value was 77 ± 15.

Q: And the “positive (stained) cells” value (25 μM 6e or 1 μM Deep Red)?
A: Its value is 99.9%.

Q: What about the “stain index before cell washing” value (25 μM 6e or 1 μM Deep Red) of the same molecule?
A: The value was 92 ± 19.

— PMC10535741, “Styrylpyridinium Derivatives for Fluorescent Cell Imaging” (Pharmaceuticals, 2023)
